Results published in patent publication US20110077251A1, “NOVEL 17 BETA LUPANE DERIVATIVES” (priority 2009, published 2011).
pIC50: −log10 of the molar value.

Key:
[1] = system: HIVIIIB; experiment: HIV-1 replication in MT2 cell line without human serum (RT activity in supernatant); assay type: cell-based; details: MT2 cells, day 5 after infection, average if tested more than once, read-out: MT2 (HIVIIIB) IC50 range
Method: (§1) HIV-1 Replication in MT2 cell line with and without 30% human serum: The cells are infected at a Multiciplicity of Infection (MOI) of 0.5 for 3 h and then washed twice with complete media to remove residual virus. Cells are then resuspended at 0.5×10^6/ml in complete medium (RPMI, 10% FBS, 1% sodium pyruvate), and seeded into 96-well plates (6.25×10^4/well). The cells are cultured in the presence or absence of various concentrations of test compounds in serial dilutions for 3 days at 37° C. The test compounds are serially diluted in complete medium supplemented or not with 30% human serum. After 3 days, 100 μL of cultured medium with cells are replaced with 120 μL of freshly diluted test compounds in complete medium containing or not 30% Human serum. The level of HIV-1 replication is determined at days 5 after infection by the presence of viral RT activity in harvested supernatant fluid. The IC50 values for the virus replication are determined by using GRAPHPAD PRISM software.
(§2) The IC50 of the compounds tested in accordance with the HIV replication activity assay MT2 (HIVIIIB) with or without human serum are represented in Table 6.

[2] = system: HIVIIIB; experiment: HIV-1 replication in MT2 cell line with 30% human serum (RT activity in supernatant); assay type: cell-based; details: MT2 cells, day 5 after infection, average if tested more than once, read-out: MT2 (HIVIIIB) with human serum IC50 range
Method: as §1, §2

[3] = Human immunodeficiency virus 1, 120 h

Compound | pIC50 [1, 3] | pIC50 [2, 3] | pIC50 [1] | pIC50 [2]
C=C(C)[C@@H]1CC[C@]2(NC(=O)Cc3ccccc3)CC[C@]3(C)[C@H](CC[C@@H]4[C@@]5(C)CC[C@H](OC(=O)CC(C)(C)C(=O)O)C(C)(C)[C@@H]5CC[C@]43C)[C@@H]12 [Cpd 13-6, 3β-O-(3′,3′-Dimethylsuccinyl)-17β-phenylacetylamino-28-norlup-20(29)-ene] | > 6.70 | > 6.70 |  | 
C=C(C)[C@@H]1CC[C@]2(NC(=O)c3ccncc3)CC[C@]3(C)[C@H](CC[C@@H]4[C@@]5(C)CC[C@H](OC(=O)CC(C)(C)C(=O)O)C(C)(C)[C@@H]5CC[C@]43C)[C@@H]12 [Cpd 13-8, 3β-O-(3′,3′-Dimethylsuccinyl)-17β-(pyridin-4-ylcarbonyl)-amino-28-norlup-20(29)-ene] | > 6.70 | 6.00 to 6.70 |  | 
C=C(C)[C@@H]1CC[C@]2(NC(=O)C3CC3)CC[C@]3(C)[C@H](CC[C@@H]4[C@@]5(C)CC[C@H](OC(=O)CC(C)(C)C(=O)O)C(C)(C)[C@@H]5CC[C@]43C)[C@@H]12 [Cpd 13-9, 17β-(Cyclopropanecarbonyl-amino)-3β-O-(3′,3′-dimethylsuccinyl)-28-norlup-20(29)-ene] | > 6.70 | > 6.70 |  | 
C=C(C)[C@@H]1CC[C@]2(NC(=O)C(C)C)CC[C@]3(C)[C@H](CC[C@@H]4[C@@]5(C)CC[C@H](OC(=O)CC(C)(C)C(=O)O)C(C)(C)[C@@H]5CC[C@]43C)[C@@H]12 [Cpd 13-10, 3β-O-(3′,3′-Dimethylsuccinyl)-17β-isobutyrylamino-28-norlup-20(29)-ene] | > 6.70 | > 6.70 |  | 
C=C(C)[C@@H]1CC[C@]2(NC(=O)CCN3CCCC3)CC[C@]3(C)[C@H](CC[C@@H]4[C@@]5(C)CC[C@H](OC(=O)CC(C)(C)C(=O)O)C(C)(C)[C@@H]5CC[C@]43C)[C@@H]12 [Cpd 13-11, 3β-O-(3′,3′-Dimethylsuccinyl)-17β-(3-pyrrolidin-1-yl-propionylamino)-28-norlup-20(29)-ene] | > 6.70 | > 6.70 |  | 
C=C(C)[C@@H]1CC[C@]2(NC(=O)OC)CC[C@]3(C)[C@H](CC[C@@H]4[C@@]5(C)CC[C@H](OC(=O)CC(C)(C)C(=O)O)C(C)(C)[C@@H]5CC[C@]43C)[C@@H]12 [Cpd 14-1, 3β-O-(3′,3′-Dimethylsuccinyl)-17β-methoxycarbonylamino-28-norlup-20(29)-ene] | > 6.70 | > 6.70 |  | 
CC(=O)NC12CCC(C(C)C)C1C1CCC3C4(C)CCC(OC(=O)CC(C)(C)C(=O)O)C(C)(C)C4CCC3(C)C1(C)CC2 (stereo not drawn) [Cpd 22-1, 3β-O-(3′,3′-Dimethylsuccinyl)-17β-acetylamino-28-norlupane] |  |  | > 6.70 | > 6.70
